The values below come from patent US12686680B2, “Substituted pyrazolo[1,5-α]pyrimidines as CRF receptor antagonists” (Neurocrine Biosciences, Inc., priority 2019, dated 2026).

One may read the Ki as a dissociation constant, usually derived from enzyme kinetics or from competition with a known ligand. The term pKa denotes the negative logarithm of the acid dissociation constant.

Where only a bound is given, the exact number is not on record here.

One data set has as its target T1, CRF1 receptor (Homo sapiens, UniProt P34998).
T1 sequence (P34998 24-415): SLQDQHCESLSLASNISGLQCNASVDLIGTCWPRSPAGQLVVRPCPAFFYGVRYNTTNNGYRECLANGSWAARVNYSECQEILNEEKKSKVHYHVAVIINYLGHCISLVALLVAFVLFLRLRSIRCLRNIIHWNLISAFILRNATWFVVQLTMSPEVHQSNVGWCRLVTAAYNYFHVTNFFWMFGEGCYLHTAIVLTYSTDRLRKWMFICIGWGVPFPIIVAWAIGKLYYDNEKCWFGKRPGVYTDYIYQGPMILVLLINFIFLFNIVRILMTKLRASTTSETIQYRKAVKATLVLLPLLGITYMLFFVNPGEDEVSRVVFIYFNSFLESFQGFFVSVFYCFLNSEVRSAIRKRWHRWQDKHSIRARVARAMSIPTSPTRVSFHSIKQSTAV
The data set can be described thus: CRF1 receptor binding kinetics (association/dissociation rate constants, method of Fleck et al.). Particulars: for Ki: Ki=k−1/k1, read-out: Kinetic Ki; for k1: association rate constant; for k^−1: dissociation rate constant. The procedure:
The association (k1) and dissociation (k−1) rate constants defining binding of the Compounds to the CRF1 receptor were determined by the method described in Fleck et al. (J. Pharmacology and Experimental Therapeutics, 341(2):518-531, 2012) (hereinafter “Fleck et al.” and incorporated by reference in its entirety). As described therein, the activity of a CRF1 receptor antagonist can be expressed as the kinetically derived affinity (Ki) calculated from the association (k1) and dissociation (k−1) rate constants by the following equation: Ki=k−1/k1
The Compounds listed in Table 5 were evaluated according to these procedures, and the kinetic Ki was determined and found to be as follows: […]

Another data set deals with ADX rats. In words: Lowering of ACTH in adrenalectomized rats. The data set is classed as in vivo. The note with it: oral, 10 mg/kg single dose, n=11/group.
Data set [1] is described as follows: pKa determination, SiriusT3 UV-metric and pH-metric co-solvent titration. It counts as physicochemical. The note with it: water:CH3OH co-solvent mixtures. On the procedure: The pKa was determined using a SiriusT3 (Serial: T317136) with a UV-metric co-solvent titration assay and a pH-metric co-solvent titration assay. For the UV-metric, 10 mM sample was prepared in DMSO with phosphate buffer and placed on the instrument along with a blank prepared with the same composition, absent compound. For pH-metric, an appropriate weight of sample was added to a glass vial to meet buffer capacity requirements, absent of diluent. For each test, pKa was measured in three water:CH3OH ratios. The reported pKas are extrapolated graphically via the Yasuda-Shedlovsky method.

Regarding `CCCN(Cc1ccc(-c2csc(N(C)C)n2)cc1)c1cc(C)nc2c(-c3cnc(N(C)C)cc3C)c(C)nn12` [Compound 1, 5-{7-[({4-[2-(dimethylamino)-1,3-thiazol-4-yl]phenyl}methyl)(propyl)amino]-2,5-dimethylpyrazolo[1,5-a]pyrimidin-3-yl}-N,N,4-trimethylpyridin-2-amine], on CRF1 receptor, the Ki is less than 0.22 nM, the k1 is 4.9 ± 1.7 10^6M^−1min^−1 and the “k^−1” value is less than 0.001 min⁻¹. In addition, in the data set with ADX rats, the “duration of lowering of plasma ACTH levels” value was “up to 5 hours” and the “plasma ACTH levels” value is reported as “significantly lowered”. Moreover, the pKa in data set [1] (UV-metric method, Yasuda-Shedlovsky extrapolation from water:CH3OH) was 4.07 ± 0.06. Further, in data set [1] (overall, two methods), the pKa is approximately 4.1. The pKa in data set [1] (pH-metric method, Yasuda-Shedlovsky extrapolation from water:CH3OH) was 4.06 ± 0.08.
For the compound `CCCN(Cc1ccc(-c2cccnc2)cc1)c1cc(C)nc2c(-c3cnc(N(C)C)cc3C)c(C)nn12` [Compound 2, 5-{2,5-dimethyl-7-[propyl({[4-(pyridin-3-yl)phenyl]methyl})amino]pyrazolo[1,5-a]pyrimidin-3-yl}-N,N,4-trimethylpyridin-2-amine], at CRF1 receptor, the Ki is less than 0.19 nM, the k1 was 5.3 ± 0.78 10^6M^−1min^−1 and the “k^−1” value is less than 0.001 min⁻¹.
For the compound `CCCN(Cc1ccc(-c2ccccn2)cc1)c1cc(C)nc2c(-c3cnc(N(C)C)cc3C)c(C)nn12` [Compound 3, 5-{2,5-dimethyl-7-[propyl({[4-(pyridin-2-yl)phenyl]methyl})amino]pyrazolo[1,5-a]pyrimidin-3-yl}-N,N,4-trimethylpyridin-2-amine], on CRF1 receptor, the Ki was less than 0.36 nM, the k1 was 2.9 ± 0.92 10^6M^−1min^−1 and the “k^−1” value was less than 0.001 min⁻¹.
In the case of `CCCN(Cc1ccc(-c2ccccc2)cc1)c1cc(C)nc2c(-c3cnc(N(C)C)cc3C)c(C)nn12` [Compound 8, 5-(2,5-dimethyl-7-{[(4-phenylphenyl)methyl](propyl)amino}pyrazolo[1,5-a]pyrimidin-3-yl)-N,N,4-trimethylpyridin-2-amine], at CRF1 receptor, the Ki was less than 0.12 nM, the k1 is 9.1 ± 4.1 10^6M^−1min^−1 and the “k^−1” value was less than 0.001 min⁻¹.
On the same counts, the results for `CCCN(Cc1ccc(-n2cccn2)cc1)c1cc(C)nc2c(-c3cnc(N(C)C)cc3C)c(C)nn12` [Compound 9, 5-{2,5-dimethyl-7-[propyl({[4-(1H-pyrazol-1-yl)phenyl]methyl})amino]pyrazolo[1,5-a]pyrimidin-3-yl}-N,N,4-trimethylpyridin-2-amine] are less than 0.29 nM, 3.5 ± 1.1 10^6M^−1min^−1 and less than 0.001 min⁻¹.
On the same counts, the results for `CCCN(Cc1ccc(-n2cncn2)cc1)c1cc(C)nc2c(-c3cnc(N(C)C)cc3C)c(C)nn12` [Compound 10, 5-{2,5-dimethyl-7-[propyl({[4-(1H-1,2,4-triazol-1-yl)phenyl]methyl})amino]pyrazolo[1,5-a]pyrimidin-3-yl}-N,N,4-trimethylpyridin-2-amine] are 0.95 nM, 2.2 10^6M^−1min^−1 and 0.0021 min⁻¹.
Turning to `CCCN(Cc1ccc(-c2csc(NC)n2)cc1)c1cc(C)nc2c(-c3cnc(N(C)C)cc3C)c(C)nn12` [Compound 11, 5-{2,5-dimethyl-7-[({4-[2-(methylamino)-1,3-thiazol-4-yl]phenyl}methyl)(propyl)amino]pyrazolo[1,5-a]pyrimidin-3-yl}-N,N,4-trimethylpyridin-2-amine], on CRF1 receptor, the Ki was 0.72 nM, the k1 is listed as 2.4 +/− 0.2 10^6M^−1min^−1 and the “k^−1” value amounted to 0.0017 min⁻¹.
